Assays:
[1] = system: Bordatella bronchiseptica; experiment: Minimum inhibitory concentration in vitro in broth containing phenol red and glucose (Difco); type: cell-based; conditions: for Mindesthemmkonzentration durch Chlorchinaldol in Kombination verringert auf: fraction of the MIC of the substance alone, stated for the bacteria used, for Bordatella bronchiseptica as 1 order of magnitude; for Werte der Mindesthemmkonzentration [MIC-Werte] in mg/l in Bezug auf die Bakterienstämme Bordatella bronchiseptica: single substance, inhibits bacterial growth for 24 hours
Description: (§1) Diese Feststellung wird durch die folgenden Versuchsergebnisse bestätigt. Die Mindesthemmkoncentrationen von Kombinationen von 2 bis 4 der obigen Verbindungen in erfindungsgemäßen Arzneimitteln beziehungsweise der einzelnen obigen Verbindungen als vergleichssubstanzen wurden in vitro gegen die Bakterienstämme Bordatella bronchiseptica und Pasteurella multocid in einer Phenolrot und Glucose enthaltenden Brühe [Hersteller: Firma Difco] bestimmt. In der folgenden Tabelle sind die Werte der Mindesthemmkonzentration [MIC-Werte] in mg/I, die den Bakterienzuwachs 24. Stunden lang hemmen, zusammengestellt.
(§2) Die Werte der Mindesthemmkonzentration [MIC-Werte] bei den Kombinationen bedeuten, daß die angegebenen Wirkstoffe gemeinsam in den angegebenen Konzentrationen das Wachstum der beiden verschiedenen Bakterienstämme bereits hemmen.

Pasteurella multocida = experiment: as above; type: cell-based; conditions: single substance; inhibits bacterial growth for 24 hours
Description: as §1, §2

[2] = system: Bordatella bronchiseptica; conditions: relatively high doses needed; J. Am. Vet. Med. Assoc., 6 [1979], 597-600; cited from earlier work
[3] = Blood plasma concentration reached in in vivo investigations; conditions: Chlorchinaldol alone, very poorly absorbed, therapeutic effect said to need about 15 bis 20 p/ml, read-out: Konzentration im Blutplasma
Description: (§3) Obwohl jeder der obigen Wirkstoffe eine antibakterielle Wirkung hat, sind verhältnismäßig hohe Dosen von 2-[Methoxycarbonylhydrazono)-methylen]-chinoxalin-1,4-dioxyd {Carbadox®} und 2,4-Diamino-5-[3',4',5'-tri-(methoxy)-benzyl] pyrimidin {Trimethoprim} bei alleiniger Verwendung derselben erforderlich. Was 2-(Methyl)-5,7-di-(chlor)-8-(hydroxy)-chinolin {Chlorchinaldol} betrifft, ist dieses eine bekannte Verbindung mit einer milden baktericiden und fungiciden Wirkung. Sie wird in erster Linie für dermatologische Zwecke, zur Behandlung von Hautinfektionen, verwendet. Obwohl bei 2-(Methyl)-5,7-di-(chlor)-8-(hydroxy)-chinolin (Chlorchinaldol) der in vitro bestimmte Wert der Mindesthemmkonzentration sehr niedrig ist, weshalb eine hohe Wirksamkeit zu erwarten wäre, ist es an sich zum Beispiel gegen Schnupfen unwirksam, wobei bei Untersuchungen in vivo die therapeutisch wirksame Dosis nicht erreicht wurde. 2-(Methyl)-5,7-di-(chlor)-8-(hydroxy)-chinolin (Chlorchinaldol) wird sehr schlecht absorbiert, weshalb im Blutplasma eine Konzentration von höchstens […] erreicht wird. Zur therapeutischen Wirkung wird jedoch eine wesentlich höhere Konzentration, nämlich etwa 15 bis […], gebraucht. Mit 2-(Methyl)-5,7-di-(chlor)-8-(hydroxy)-chinolin {Chlorchinaldol} allein wird also die zur Therapie erforderliche Konzentration im Plasma nicht erreicht. […]

Schnupfen = experiment: Efficacy against Schnupfen in in vivo investigations; conditions: Chlorchinaldol alone; therapeutically effective dose not reached in vivo
Description: as §3

Row | SMILES | Mindesthemmkonzentration durch Chlorchinaldol in Kombination verringert auf [1] | Werte der Mindesthemmkonzentration [MIC-Werte] in mg/l in Bezug auf die Bakterienstämme Bordatella bronchiseptica [1] | Werte der Mindesthemmkonzentration [MIC-Werte] in mg/l in Bezug auf die Bakterienstämme Pasteurella multocida (Pasteurella multocida) | Ergebnisse der Behandlung mit Bordatella bronchiseptica infizierter Tiere [2] | Cmax [3] | Wirksamkeit gegen Schnupfen (Schnupfen)
1 | COC(=O)NN=Cc1c[n+]([O-])c2ccccc2[n+]1[O-] [Carbadox®, 2-[(Methoxycarbonylhydrazono)-methylen]-chinoxalin-1,4-dioxyd] | 1/10 | 50 mg/L | 10 mg/L | verhältnismäßig günstige Ergebnisse | – | –
2 | Cc1ccc2c(Cl)cc(Cl)c(O)c2n1 [Chlorchinaldol, 2-(Methyl)-5,7-di-(chlor)-8-(hydroxy)-chinolin] | – | 0,5 mg/l | 0,5 mg/l | – | ≤ 5000 ng/mL | unwirksam
3 | CN(C)[C@@H]1C(O)=C(C(N)=O)C(=O)[C@@]2(O)C(O)=C3C(=O)c4c(O)cccc4[C@@](C)(O)[C@H]3[C@H](O)[C@@H]12 [Oxytetracyclin, 4-Dimethylamino-3,5,6,10,12,12a-hexahydroxy-6-methyl-1,11-dioxo-1,4,4a,5,5a,6,11,12a-octahydro-naphthacen-2-carbonsäureamid] | 1/10 | 5 mg/L | 5 mg/L | – | – | –
4 | COc1cc(Cc2cnc(N)nc2N)cc(OC)c1OC [Trimethoprim, 2,4-Diamino-5-[3',4',5'-tri-(me-thoxy)-benzyl]-pyrimidin] | 1/10 | 50 mg/L | 50 mg/L | – | – | –

From patent publication EP0135657B1, “Antibacterial drugs and/or feed concentrates” (priority 1983, dated 1985)
